Nine compounds from publication PMC13022995 (Environmental science & technology, 2025) can be followed below.

Read-outs that look alike come from different tables or passages of the source.

Series [1] relates to HepG2 cells. It is filed as cell-based, human.
Series [2] has as its system p53RE-bla HCT116 cells. It counts as cell-based, human.
Series [3] deals with hTERT-MSCs and aortic ECs (TeloHAECs) co-culture. It is filed as cell-based, human.
Series [4] relates to liver, renal, bladder, and lung cells.

Consider `O=[As]O[As]=O` (stereo not drawn) [arsenic oxide], for which the ROS induction result in series [1] (HepG2 cells) is reported as “not detected”.
Take `O.O.O.O.O=S(=O)([O-])[O-].[Be+2]` [beryllium sulfate tetrahydrate]: the ROS induction entry in series [1] (HepG2 cells) is recorded as “not detected”. In series [2], the p53 activation entry is on record as “activated p53”.
`CC(=O)[O-].CC(=O)[O-].O.O.[Cd+2]` [cadmium acetate dihydrate, Cadmium acetate dihydrate]: the angiogenesis induction result in series [3] is recorded as “independently induce angiogenesis”. Moreover, the “cytotoxicity of single compound” value in series [4] was “cytotoxic by themselves”.
For the compound `[Cl][Cd][Cl]` [cadmium chloride], the angiogenesis induction entry in series [3] is listed as “independently induce angiogenesis”. The “cytotoxicity of single compound” value in series [4] is listed as “cytotoxic by themselves”.
Regarding `O.O.O.O.O=[N+]([O-])[O-].O=[N+]([O-])[O-].[Cd+2]` [cadmium nitrate tetrahydrate, Cadmium nitrate tetrahydrate], the oxidative stress-inducing capability entry in series [1] (among components of Mixture 1, Supporting Table 3) is “exhibited oxidative stress-inducing capability”. For the same compound, the angiogenesis induction entry in series [3] is “independently induce angiogenesis”. Further, the “cytotoxicity of single compound” value in series [4] is listed as “cytotoxic by themselves”.
`CC(=O)[O-].CC(=O)[O-].O.O.O.[Pb+2]` [lead(II) acetate trihydrate]: in series [4], the “cytotoxicity of single compound” value is recorded as “cytotoxic by themselves”.
As to `[Cl][Pb][Cl]` [lead(II) chloride, Lead(II) chloride], the angiogenesis induction result in series [3] was “induced angiogenesis”. Further, the “cytotoxicity of single compound” value in series [4] is given as “cytotoxic by themselves”.
As to `O.O.O.O.O.O.O=S(=O)([O-])[O-].[Ni+2]` [nickel sulfate, nickel(II) sulfate hexahydrate], the ROS induction entry in series [1] is “not detected”.
As to `O=[N+]([O-])c1ccc([As](=O)(O)O)cc1` [nitarsone, Nitarsone], the angiogenesis induction entry in series [3] is listed as “induced angiogenesis”.
